Reference: patent US11518758B2, “Heteroarylaminopyrimidine amide autophagy inhibitors and methods of use thereof” (Deciphera Pharmaceuticals, LLC, priority 2019, dated 2022)

Key:
[1] = biological target: T1, LRRK2 kinase (Homo sapiens, UniProt Q5S007); assay: Biochemical assay for LRRK2 (coupled pyruvate kinase/lactate dehydrogenase assay); details: 26.4 nM LRRK2 (residues 970-2528), 0.1 mM peptide substrate, 1 mM ATP
T1 construct: purchased Thermo Fisher
Protocol: Example 182. Biochemical Assay for LRRK2 (SEQ. ID NO. 4)
(§1) Activity of LRRK2 kinase was determined spectroscopically using a coupled pyruvate kinase/lactate dehydrogenase assay that continuously monitors the ATP hydrolysis-dependent oxidation of NADH (e.g., Schindler et al. Science (2000) 289: 1938-1942). Assays were conducted in 384-well plates (100 uL final volume) using 26.4 nM LRRK2 (Thermo Fisher), 0.1 mM peptide substrate (RLGRDKYKTLRQIRQ (SEQ ID NO: 6)), 1.5 units pyruvate kinase, 2.1 units lactate dehydrogenase, 1 mM phosphoenol pyruvate, 0.28 mM NADH and 1 mM ATP in assay buffer (100 mM Tris, pH 7.5, 15 mM MgCl2, 0.5 mM DTT, 0.004% (w/v) BSA, and 0.004% Triton X-100). Inhibition of LRRK2 was measured by adding serial diluted test compound (final assay concentration of 1% DMSO). A decrease in absorption at 340 nm was monitored continuously for 6 hours at 30° C. on a multi-mode microplate reader (BioTek). The reaction rate was calculated using the 2-3 h time frame. The reaction rate at each concentration of compound was converted to percent inhibition using controls (i.e. reaction with no test compound and reaction with a known inhibitor) and IC50 values were calculated using software routines in Prism (GraphPad software).

[2] = biological target: T2, ULK1 kinase (Homo sapiens, UniProt O75385, E37A/K38A); assay: Biochemical assay for ULK1.3 (coupled pyruvate kinase/lactate dehydrogenase assay); details: 0.1 nM ULK1 (from Beryllium), peptide substrate, 1 mM ATP
T2 construct: (residues 1-283; ID NO: 2); purchased Beryllium
T2 sequence (O75385 1-283 E37A/K38A): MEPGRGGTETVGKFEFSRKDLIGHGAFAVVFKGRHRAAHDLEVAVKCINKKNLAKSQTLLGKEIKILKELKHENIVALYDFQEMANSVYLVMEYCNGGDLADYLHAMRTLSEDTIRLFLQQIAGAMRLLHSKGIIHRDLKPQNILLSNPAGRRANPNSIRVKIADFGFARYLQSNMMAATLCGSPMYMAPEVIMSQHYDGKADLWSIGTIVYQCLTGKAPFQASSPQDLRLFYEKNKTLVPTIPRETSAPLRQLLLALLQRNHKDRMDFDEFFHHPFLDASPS
Protocol: Example 175. Biochemical Assay for ULK1.3
as §1, with “ULK1” for “LRRK2”, “0.1” for “26.4”, “ULK1 (from Beryllium), 0.075” for “LRRK2 (Thermo Fisher), 0.1”, “(YANWLAASIYLDGKKK” for “(RLGRDKYKTLRQIRQ”, “5)),” for “6)),”

T1 sequence (Q5S007 with tags, fused parts or gaps): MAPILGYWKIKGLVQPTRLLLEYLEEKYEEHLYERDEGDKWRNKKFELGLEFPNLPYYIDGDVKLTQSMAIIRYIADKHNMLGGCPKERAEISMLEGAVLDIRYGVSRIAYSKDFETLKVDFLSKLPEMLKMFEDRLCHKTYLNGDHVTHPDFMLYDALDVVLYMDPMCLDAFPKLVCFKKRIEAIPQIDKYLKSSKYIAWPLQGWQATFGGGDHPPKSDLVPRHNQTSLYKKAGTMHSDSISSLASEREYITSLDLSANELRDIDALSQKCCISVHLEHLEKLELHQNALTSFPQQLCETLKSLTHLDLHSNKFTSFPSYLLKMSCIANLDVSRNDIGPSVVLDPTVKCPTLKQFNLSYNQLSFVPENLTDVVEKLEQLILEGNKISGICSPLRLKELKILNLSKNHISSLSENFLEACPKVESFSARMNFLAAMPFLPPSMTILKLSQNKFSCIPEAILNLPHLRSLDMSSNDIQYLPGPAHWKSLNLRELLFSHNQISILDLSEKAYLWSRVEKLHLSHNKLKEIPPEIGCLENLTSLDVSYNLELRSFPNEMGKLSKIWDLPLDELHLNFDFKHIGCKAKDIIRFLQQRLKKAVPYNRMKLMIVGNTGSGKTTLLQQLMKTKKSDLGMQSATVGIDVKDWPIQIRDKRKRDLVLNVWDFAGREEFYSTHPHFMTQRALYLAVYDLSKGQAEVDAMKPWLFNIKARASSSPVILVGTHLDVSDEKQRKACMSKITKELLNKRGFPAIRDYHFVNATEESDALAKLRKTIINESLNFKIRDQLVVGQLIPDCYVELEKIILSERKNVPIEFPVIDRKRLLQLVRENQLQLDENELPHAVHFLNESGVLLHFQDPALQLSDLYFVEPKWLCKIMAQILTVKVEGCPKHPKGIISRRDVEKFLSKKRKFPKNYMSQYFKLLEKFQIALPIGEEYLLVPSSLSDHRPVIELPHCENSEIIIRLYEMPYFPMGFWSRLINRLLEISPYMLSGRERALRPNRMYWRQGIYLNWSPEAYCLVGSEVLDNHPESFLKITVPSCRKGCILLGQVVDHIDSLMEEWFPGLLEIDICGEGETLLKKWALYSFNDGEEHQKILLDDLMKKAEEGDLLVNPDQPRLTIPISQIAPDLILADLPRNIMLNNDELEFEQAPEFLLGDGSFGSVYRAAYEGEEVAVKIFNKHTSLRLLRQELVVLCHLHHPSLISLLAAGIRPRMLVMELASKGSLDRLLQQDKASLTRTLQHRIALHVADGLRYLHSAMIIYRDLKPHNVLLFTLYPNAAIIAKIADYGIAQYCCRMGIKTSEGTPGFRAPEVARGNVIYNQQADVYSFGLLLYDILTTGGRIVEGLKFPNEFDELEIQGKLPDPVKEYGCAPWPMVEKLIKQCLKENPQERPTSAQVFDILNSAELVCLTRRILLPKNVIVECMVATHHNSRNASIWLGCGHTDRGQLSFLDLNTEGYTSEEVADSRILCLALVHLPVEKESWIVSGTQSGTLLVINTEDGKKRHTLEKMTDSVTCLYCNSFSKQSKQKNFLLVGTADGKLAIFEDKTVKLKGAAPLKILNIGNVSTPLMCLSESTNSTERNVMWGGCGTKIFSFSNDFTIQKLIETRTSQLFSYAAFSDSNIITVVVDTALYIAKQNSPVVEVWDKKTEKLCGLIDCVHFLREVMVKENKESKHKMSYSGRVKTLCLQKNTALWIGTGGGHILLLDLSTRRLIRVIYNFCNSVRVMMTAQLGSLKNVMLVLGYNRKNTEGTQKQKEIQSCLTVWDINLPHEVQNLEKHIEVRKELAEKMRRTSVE

Row | SMILES | IC50 [1] [nM] | IC50 [2] [nM]
1 | Cc1nn(C(C)(C)C(N)=O)cc1Nc1ncc(C(F)(F)F)c(NCCCN2CCCCC2=O)n1 [Example 67] | 1 to 100 | > 500
2 | CCc1nn(C2CCN(C(C)C)CC2)cc1Nc1ncc(Cl)c(NCCCN2CCCOC2=O)n1 [Example 73] | 300 to 600 | 100 to 500
3 | Cc1nn(C2CCN(C(C)C)CC2)cc1Nc1ncc(C2CC2)c(NCCCN2CCOCC2=O)n1 [Example 75] | – | > 500
4 | CCc1nn(C2CCN(C(C)C)CC2)cc1Nc1ncc(C2CC2)c(NCCCN2CCOCC2=O)n1 [Example 76] | > 600 | > 500
5 | Cc1nn([C@@H]2CCN(C)C2)cc1Nc1ncc(Cl)c(NCCCN2CCCOCC2=O)n1 [Example 113] | 100 to 300 | 100 to 500
6 | Cc1nn(C2CCN(C(C)C)CC2)cc1Nc1ncc(C2CC2)c(NCCCN2CCCOCC2=O)n1 [Example 114] | > 600 | > 500
7 | Cc1nn(CCCN2CCOCC2)cc1Nc1ncc(C2CC2)c(NCCCN2CCCOCC2=O)n1 [Example 115] | > 600 | > 500
8 | Cc1nn(CCN(C)C)cc1Nc1ncc(C2CC2)c(NCCCN2CCCOCC2=O)n1 [Example 116] | > 600 | > 500
9 | Cc1nn(CCN(C)C)cc1Nc1ncc(C(F)(F)F)c(NCCCN2CCCOCC2=O)n1 [Example 117] | – | 25 to 100
10 | CCc1nn(C2CCN(C)CC2)cc1Nc1ncc(C2CC2)c(NCCCN2CCCOCC2=O)n1 [Example 119] | – | > 500
11 | Cc1nn(CCCN2CCOCC2)cc1Nc1ncc(Cl)c(NCCCN2CCCOCC2=O)n1 [Example 120] | – | > 500
12 | Cc1nn(CCCN2CCOCC2)cc1Nc1ncc(Br)c(NCCCN2CCCOCC2=O)n1 [Example 121] | – | 100 to 500
13 | Cc1nn(CCN(C)C)cc1Nc1ncc(Br)c(NCCCN2CCCOCC2=O)n1 [Example 122] | 100 to 300 | 100 to 500
14 | Cc1nn(CCN(C)C)cc1Nc1ncc(Cl)c(NCCCN2CCCOCC2=O)n1 [Example 123] | > 600 | > 500
15 | Cc1nn(C(C)(C)C(N)=O)cc1Nc1ncc(C(F)(F)F)c(NCCCN2CCCOCC2=O)n1 [Example 125, 2-methyl-2-(3-methyl-4-((4-((3-(3-oxo-1,4-oxazepan-4-yl)propyl)amino)-5-(trifluoromethyl)pyrimidin-2-yl)amino)-1H-pyrazol-1-yl)propanamide] | 1 to 100 | > 500
16 | Cc1cn(C2CCN(C)CC2)nc1Nc1ncc(C(F)(F)F)c(NCCCN2CCCOC2=O)n1 [Example 126] | > 600 | > 500
17 | CCc1nn(C2CCN(C)CC2)cc1Nc1ncc(C(F)(F)F)c(NCCCN2CCOCCC2=O)n1 [Example 136] | – | 1 to 25
18 | Cc1nn(CCN(C)C)cc1Nc1ncc(C(F)(F)F)c(NCCCN2CCOCCC2=O)n1 [Example 137] | – | 100 to 500
19 | Cc1nn(CCCN2CCOCC2)cc1Nc1ncc(C2CC2)c(NCCCN2CCOCCC2=O)n1 [Example 139] | > 600 | > 500
20 | Cc1nn(CCN(C)C)cc1Nc1ncc(C2CC2)c(NCCCN2CCOCCC2=O)n1 [Example 140] | > 600 | > 500
21 | Cc1nn(C2CCN(C)CC2)cc1Nc1ncc(C2CC2)c(NCCCN2CCOCCC2=O)n1 [Example 141] | > 600 | 100 to 500
22 | CCN1CCC(n2cc(Nc3ncc(C4CC4)c(NCCCN4CCOCCC4=O)n3)c(C)n2)CC1 [Example 142] | – | > 500
23 | Cc1nn(C2CCN(C(C)C)CC2)cc1Nc1ncc(Cl)c(NCCCN2CCOCCC2=O)n1 [Example 143] | – | 100 to 500
24 | Cc1nn(CCN(C)C)cc1Nc1ncc(Br)c(NCCCN2CCOCCC2=O)n1 [Example 144] | – | 100 to 500
25 | Cc1nn(C(C)(C)C(N)=O)cc1Nc1ncc(C(F)(F)F)c(NCCCN2CCOCCC2=O)n1 [Example 145] | 1 to 100 | 100 to 500
26 | CCN(CC)CCn1cc(Nc2ncc(C(F)(F)F)c(NCCCN3CCOCCC3=O)n2)c(C)n1 [Example 146] | – | 100 to 500
27 | Cc1nn(C(C)(C)C#N)cc1Nc1ncc(C(F)(F)F)c(NCCCN2CCCOCC2=O)n1 [Example 172, 2-methyl-2-(3-methyl-4-((4-((3-(3-oxo-1,4-oxazepan-4-yl)propyl)amino)-5-(trifluoromethyl)pyrimidin-2-yl)amino)-1H-pyrazol-1-yl)propanenitrile] | 1 to 100 | 100 to 500
